Data published in patent publication US20240024287A1, “APPLICATION OF ANLE138B IN DRUG FOR IMPROVING DIET-INDUCED INSULIN RESISTANCE” (The First Affiliated Hospital of Shantou University Medical …, priority 2022, published 2024).
“And” between values parts separate entries of the source, which are not always exact repeats. Equal values may be shown once. Marks after values point to notes of the source that are not given here.

Columns and labels:
[1] = test system: high-fructose-induced rat insulin resistance models; assay: High-fructose-induced rat insulin resistance model, therapeutic administration; type: in vivo
Text: (§1) 8-week-old male […] were selected as experimental animals. The rats were adaptively fed for 1 week after purchase, and then weighed for the fasting body weight. The healthy rats weighing 22-24 g were selected and randomly divided into groups according to the experimental flow design. (1) The rats were fed with normal feed and high-fructose feed for 8 weeks; (2) the rats were fed with high-fat feed for 12 weeks; (3) the rats were fed with high-fat feed for 8 weeks as a preventive experiment. Fasting body weights were measured and recorded regularly every week, and the rats were guaranteed to have free access to water and food during feeding. The food intake, water intake, and free movement of the model rats were continuously observed, and the rats with stunted growth, rough hair, and rickety posture after eating high-fructose and high-fat diets were screened out. In the experiment later, the rats were fed with normal feed or high-fructose/high-fat feed during the 2 weeks of intraperitoneal injection to ensure the consistency before and after administration.
(§2) Anle138b solutions: The drug doses required for 1 week of intervention for each group of rats were calculated, Anle138b drug concentrations of 1 mg/kg (0.01%), 3 mg/kg (0.03%) and 5 mg/kg (0.05%) were prepared, Anle138b powder was weighed and then added in 10% DMSO, 40% PEG300, 5% Tween-80 and 45% saline in sequence, each mixture was evenly blended by vortex into a clear solution, and each Anle138b solution was separately bottled according to the daily dose and stored in a refrigerator at 4° C.
L-THP solution: The drug dose required for 1 week of intervention for each group of rats was calculated, L-THP drug concentrations of 3 mg/kg (0.03%) was prepared, light yellow L-THP powder was weighed and then added in 10% DMSO, 40% PEG300, 5% Tween-80 and 45% saline in sequence, each mixture was evenly blended by vortex into a clear solution, and each Anle138b solution was separately bottled according to the daily dosage and stored in a refrigerator at 4° C.
(§3) The 8-week-old adult rats were modeled by changing the diets after 1 week of adaptive feeding. Blood was collected from the right orbital venous plexus with a glass tube at 8 weeks and 12 weeks after model establishment and after fasting (>12 h), and blood glucose levels were measured with a blood glucose tester (Sannuo GA-3); and the insulin resistance mode was judged by the subsequent determination of metabolic indexes, such as glucose tolerance test by intraperitoneal injection, fasting serum insulin (enzyme-linked immunosorbent assay, Raybiotech), serum triglyceride (GPO-PAP single-reagent microplate method, Nanjing Jiancheng) and cholesterol ([…] single-reagent microplate method, Nanjing Jiancheng).
The rats were fed with 60% high-fructose diet for 8 weeks to establish insulin resistance models, and the rats fed with normal diet provided by the animal room of Shantou University Medical College were used as controls. After fasting, orbital blood was collected, and fasting blood glucose, serum insulin, glucose tolerance were determined to judge whether the modeling was successful. According to an insulin resistance index (HOMA-IR) as the core judgment index, the successfully modeled rats were enrolled by screening the IR index of >3 and randomly divided into groups to explore the influence of different concentrations of Anle138b on the rat insulin resistance models. The concentration gradients for different groups were 0 mg/kg (injection solvent, namely the model control group), 1 mg/kg, 3 mg/kg and 5 mg/kg clear Anle138b solution, as well as the L-THP 3 mg/kg positive drug control group. The rats were administrated by intraperitoneal injection for 2 weeks continuously, once a day.
The insulin resistance value was calculated in combination with the method for calculating the insulin resistance index (HOMA-IR) in the homeostasis model assessment method. […]

[2] = test system: high-fat-induced rat insulin resistance model; assay: High-fat-induced rat insulin resistance model, preventive administration; type: in vivo, C57BL/6J rats; conditions: high-fat diet, preventive 5 mg/kg
Text: as §1
(§4) A total energy-to-mass ratio was 4.73 kcal/g. The feed was provided by Beijing Huafukang Biotechnology Co., Ltd.
as §2, §3
Rats fed with high-fat diet for 5 weeks were randomly divided into high-fat feeding control group (n=6) and drug intervention group with Anle138b 5 mg/kg, and the rats were administered for 3 weeks continuously, once every two days.

normal rats = assay: Normal rats given Anle138b (normal drug / drug control group); type: in vivo; conditions: 3 mg/kg i.p., 2 weeks
Text: as §1, §2, §3
(1) The normal rats were randomly divided into two groups: blank control group (n=6) and drug control group (n=7); the rats in the normal control group were intraperitoneally injected with a similar volume of solvent and Anle138b (3 mg/kg, 0.03%) according to the body weight for 2 weeks.

[3] = test system: high-fat-induced rat insulin resistance models; assay: Anle138b treatment versus paired-feed (PF) group in high-fat rat insulin resistance models; type: in vivo; conditions: high-fat model, 5 mg/kg, compared with PF group
Experimental: The rats fed with high-fat diet for 8 weeks were divided into paired-feed group (n=7) (the food intake was the same as that of high-fat Anle138b 5 mg/kg/d) and control group continuously fed with high-fat diet.
Pair-feed (PF) group: the pair-feed group was set according to the daily food intake in the high-fat group after intervention with Anle138b 5 mg/kg, the rats were given the same amount of high-fat diet every day, and the changes in the body weight and the metabolic indexes were measured.

[4] = test system: high-fat-induced rat insulin resistance models; assay: High-fat-induced rat insulin resistance model, therapeutic administration; type: in vivo
Text: as §1, §4, §2, §3
The rat IR models were randomly divided into two groups, the rats were administrated with Anle138b 3 mg/kg (n=6, 0.03%) and 5 mg/kg (n=6, 0.05%) for 2 weeks continuously, once a day.
After the models were determined to be successful, the average value of food intake of each rat in the first two days was taken as its own food intake base. After the drug intervention, the daily food intake and body weight were measured and compared with their own bases for comparison of the standardized food intake and body weight of each rat. […]

[5] = 3 mg/kg i.p. once a day, 2 weeks
[6] = 1 mg/kg i.p. once a day, 2 weeks
[7] = 5 mg/kg i.p. once a day, 2 weeks
[8] = 2 weeks, with increase of drug concentration
[9] = 3 mg/kg/d, 2 weeks, 3 mg/kg/day
[10] = 5 mg/kg/d, 2 weeks, 5 mg/kg/day

COc1cc2c(cc1OC)[C@@H]1Cc3ccc(OC)c(OC)c3CN1CC2 [L-THP, reference compound]
Body Weight After Administration [1, 5]: 24.24 ± 1.255 g | Fasting Blood Glucose [1, 5]: 4.967 ± 0.39 # mmol/L | Fasting Insulin [1, 5]: 24.76 ± 9.70 # # μIU/mL | HOMA-IR [1, 5]: 6.029 ± 3.33 # μIU/mL*mmol/L | Right epididymal fat weight index (fat weight/fasting body weight) ([1]; 3 mg/kg i.p., 2 weeks): 0.00751±0.002279

Brc1cccc(-c2cc(-c3ccc4c(c3)OCO4)[nH]n2)c1 [Anle138b]
Body Weight After Administration [1, 6]: 25.58 ± 1.555* * g | Fasting Blood Glucose [1, 6]: 5.100 ± 0.65 # mmol/L | Fasting Insulin [1, 6]: 48.97 ± 1.38 μIU/mL | HOMA-IR [1, 6]: 11.3 ± 1.78 μIU/mL*mmol/L | Glucose tolerance test area under curve (AUC) ([1]; 1 mg/kg i.p., 2 weeks): 1,307±46.38 min*mmol/L | Right epididymal fat weight index (fat weight/fasting body weight) ([1]; 1 mg/kg i.p., 2 weeks): 0.008918±0.0003788 | Body Weight After Administration [1, 5]: 25.51 ± 0.8009 g | Fasting Blood Glucose [1, 5]: 5.300 ± 0.89 mmol/L | Fasting Insulin [1, 5]: 21.46 ± 10.36 # μIU/mL | HOMA-IR [1, 5]: 5.438 ± +2.13 # μIU/mL*mmol/L | Right epididymal fat weight index (fat weight/fasting body weight) ([1]; 3 mg/kg i.p., 2 weeks): 0.007657±0.002366 | Body Weight After Administration [1, 7]: 24.25 ± +2.652 g | Fasting Blood Glucose [1, 7]: 4.675 ± 0.95 # mmol/L | Fasting Insulin [1, 7]: 25.74 ± 12.24 # μIU/mL | HOMA-IR [1, 7]: 5.827 ± 3.78 # μIU/mL*mmol/L | Glucose tolerance test area under curve (AUC) ([1]; 5 mg/kg i.p., 2 weeks): 1,261±103.2 min*mmol/L | Right epididymal fat weight index (fat weight/fasting body weight) ([1]; 5 mg/kg i.p., 2 weeks): 0.007971±0.00142 | Epididymal adipose tissue pathomorphism, HE staining [1, 8]: the adipocytes were reduced in sizes and arranged regularly | Liver pathomorphism, HE staining ([1]; different concentrations, dose-dependent): the hepatic steatosis was significantly alleviated | Adipose tissue pathomorphism, HE staining [2]: relieved the structural disorder of the adipose tissue | Daily feeding efficiency [2]: −0.03518±0.02726 | Fasting Blood Glucose [2]: 6.313 ± 0.63 mmol/L | Fasting Insulin [2]: 22.09±6.49 μIU/mL | Fat weight index [2]: 0.01195±0.003 | Glucose tolerance test area under curve (AUC) [2]: 1,269±74 min*mmol/L | Insulin Resistance Index [2]: 6.880±2.73 μIU/mL*mmol/L | Liver weight index [2]: 0.03763±0.001 | Pancreas pathomorphism, HE staining [2]: significantly inhibit the steatosis of pancreatic acinar cells | Total Cholesterol [2]: 3.383 ± 0.21 mmol/L | Triglyceride [2]: 0.4687 ± 0.05 mmol/L | Body weight at end point of prevention experiment ([2]; 3 weeks, once every two days): 25.8 ± 0.67 g | Food intake ([2]; 3 weeks, once every two days): 1.805±0.19 g/rat | Body Weight After Administration (normal rats): 25.65 ± 0.7842 g | Fasting Blood Glucose (normal rats): 3.650 ± 0.33 mmol/L | Fasting Insulin (normal rats; 3 mg/kg): 15.08±13.14 μIU/mL | HOMA-IR (normal rats; 3 mg/kg): 1.1689±1.153 μIU/mL*mmol/L and 1.1689 ± 1.15 μIU/mL*mmol/L | Average body weight [3]: 28.23 ± 0.66 g | Fasting Blood Glucose [3]: 4.87 ± 0.36 mmol/L | Feeding efficiency [3]: −0.015±0.013 | Triglyceride [3]: 0.52 ± 0.06 mmol/L | Fat weight index ([4]; 3 mg/kg): 0.01317±0.004212 | Feeding efficiency (daily body weight change/energy consumption) ([4]; 3 mg/kg): −0.007788±0.01949 g/calories/rat/day | Glucose tolerance test area under curve (AUC) ([4]; 3 mg/kg): 1,203±155.6 min*mmol/L | Liver weight index ([4]; 3 mg/kg): 0.04475±0.003 | Liver pathomorphism, HE staining ([4]; 3 mg/kg and 5 mg/kg): the hepatic steatosis was significantly alleviated | Pancreas pathomorphism, HE staining ([4]; 3 mg/kg and 5 mg/kg, as the dose increases): the acinar steatosis was significantly alleviated | Average daily food intake ([4]; 3 mg/kg once a day, 2 weeks): 1.946 ± 0.4777 g/day | Body weight after intervention ([4]; 3 mg/kg once a day, 2 weeks): 28.97 ± 1.657 g | Fasting Blood Glucose [4, 9]: 5.283 ± 0.74 mmol/L | Fasting Insulin [4, 9]: 55.24±28.94 μIU/mL | Insulin Resistance Index [4, 9]: 11.6±5.044 μIU/mL*mmol/L and 11.6 ± 5.04 μIU/mL*mmol/L | Triglyceride [4, 9]: 0.5138 ± 0.06 mmol/L | Fat weight index ([4]; 5 mg/kg): decreased | Feeding efficiency (daily body weight change/energy consumption) ([4]; 5 mg/kg): −0.01528±0.01287 g/calories/rat/day | Glucose tolerance test area under curve (AUC) ([4]; 5 mg/kg): 1,059±153.2 min*mmol/L | Liver weight index ([4]; 5 mg/kg): 0.04344±0.0026 | Body weight after intervention ([4]; 5 mg/kg once a day, 2 weeks): 28.9 ± 1.685 g | Average daily food intake ([4]; 5 mg/kg once a day, 2 weeks, P<0.001): significantly lower than that of the model group | Fasting Blood Glucose [4, 10]: 4.867 ± 0.36 mmol/L | Fasting Insulin [4, 10]: 36.27±16.53 μIU/mL | Insulin Resistance Index [4, 10]: 8.446±3.617 μIU/mL*mmol/L and 8.446 ± 3.62 μIU/mL*mmol/L | Triglyceride [4, 10]: 0.5164 ± 0.06 mmol/L | Epididymal adipose tissue pathomorphism, HE staining [4, 8]: the adipocytes were reduced in sizes and arranged regularly | Skeletal muscle pathomorphism, HE staining ([4]; drug intervention 2 weeks): the intermuscular steatosis was relieved
